This assay addresses T1, α-amylase (hog pancreas) (Sus scrofa, UniProt P00690).
T1 construct: gene AMY2
T1 sequence (P00690 16-511): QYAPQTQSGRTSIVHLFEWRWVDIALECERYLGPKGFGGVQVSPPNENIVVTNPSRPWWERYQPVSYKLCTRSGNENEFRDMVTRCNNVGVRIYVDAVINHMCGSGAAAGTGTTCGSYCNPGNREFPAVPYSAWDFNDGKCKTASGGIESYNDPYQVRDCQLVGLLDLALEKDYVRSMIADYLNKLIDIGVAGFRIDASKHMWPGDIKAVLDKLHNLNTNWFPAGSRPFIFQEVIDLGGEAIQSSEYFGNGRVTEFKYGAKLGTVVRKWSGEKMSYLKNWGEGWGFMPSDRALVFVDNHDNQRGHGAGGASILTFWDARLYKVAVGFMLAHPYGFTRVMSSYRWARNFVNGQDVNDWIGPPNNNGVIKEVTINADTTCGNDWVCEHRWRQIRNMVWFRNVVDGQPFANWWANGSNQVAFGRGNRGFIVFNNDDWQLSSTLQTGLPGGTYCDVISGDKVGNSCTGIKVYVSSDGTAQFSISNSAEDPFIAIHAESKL
The assay can be described thus: DNS starch hydrolysis assay with hog pancreas α-amylase; Lineweaver–Burk, Dixon and Eisenthal–Cornish-Bowden kinetics. Type of assay: biochemical.

We go through one compound from PMC10742785, “Screening and Characterization of an α-Amylase Inhibitor from Carya cathayensis Sarg. Peel” (Foods, 2023).

As to `O=C(/C=C/c1ccc(O)cc1)O[C@@H]1CC(O)(C(=O)O)C[C@@H](O)C1O` (stereo partly shown) [5-CQA, 5-O-p-coumaroylquinic acid], the IC50 is 69.4 µM.

Usually IC50 stands for the point on the concentration scale where inhibition reaches its midpoint.
